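Five concentrations, 48 hours, 96-well plates. GI50 is the concentration that inhibits growth by half. At the TGI there is no net growth.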
Legend:
Experiment in all cases: growth of human tumour cells (NCI), 48 h
SN12C renal = test system: SN12C renal
ACHN renal = test system: ACHN renal
SR leukemia = test system: SR leukemia
IGROV1 ovarian = test system: IGROV1 ovarian
COLO 205 colon = test system: COLO 205 colon
PC-3 prostate = test system: PC-3 prostate
SNB-19 CNS = test system: SNB-19 CNS
MOLT-4 leukemia = test system: MOLT-4 leukemia
SF-295 CNS = test system: SF-295 CNS
MDA-N = test system: MDA-N
HOP-92 NSCLC = test system: HOP-92 NSCLC
HS 578T breast = test system: HS 578T breast

CC(C)(C)N(Cc1ccc2c(c1)OCO2)C(=O)/C=C\Sc1ccccc1
TGI (SN12C renal): > 100 µM
TGI (ACHN renal): > 100 µM
TGI (SR leukemia): > 100 µM
TGI (IGROV1 ovarian): > 100 µM
TGI (COLO 205 colon): > 100 µM
TGI (PC-3 prostate): > 100 µM
TGI (SNB-19 CNS): > 100 µM
TGI (MOLT-4 leukemia): > 100 µM
TGI (SF-295 CNS): > 100 µM
TGI (MDA-N): > 100 µM
TGI (HOP-92 NSCLC): 91 µM

CCc1nc2ccc(NCCN(C)C)c3c(=O)c4ccccc4n1c23
TGI (SN12C renal): 10.6 µM
TGI (ACHN renal): 6.03 µM
TGI (SR leukemia): 7.66 µM
TGI (IGROV1 ovarian): 4.82 µM
TGI (COLO 205 colon): 3.44 µM
TGI (PC-3 prostate): 6.44 µM
TGI (SNB-19 CNS): 16.5 µM
TGI (MOLT-4 leukemia): 6.28 µM
TGI (SF-295 CNS): 5.04 µM
TGI (HS 578T breast): 5.94 µM
TGI (HOP-92 NSCLC): 5.26 µM

Cc1nc2ccccc2c(/C=C/c2ccc(Cl)cc2)c1C(=O)/C=C/c1ccc(Cl)cc1
GI50 (SR leukemia): 0.609 µM
TGI (SR leukemia): > 100 µM
GI50 (SNB-19 CNS): 1.57 µM
TGI (SNB-19 CNS): 2.94 µM
GI50 (MOLT-4 leukemia): 0.788 µM
TGI (MOLT-4 leukemia): > 100 µM
GI50 (HS 578T breast): 2.06 µM
TGI (HS 578T breast): 5.97 µM

Cc1ccccc1NC(=O)Cc1csc2[n+]1C(=O)/C(=C/c1ccc([N+](=O)[O-])cc1)S2
TGI (SN12C renal): > 100 µM
TGI (ACHN renal): > 100 µM
TGI (IGROV1 ovarian): > 100 µM
TGI (COLO 205 colon): > 100 µM
TGI (PC-3 prostate): > 100 µM
TGI (SNB-19 CNS): > 100 µM
TGI (MOLT-4 leukemia): > 100 µM
TGI (SF-295 CNS): > 100 µM
TGI (MDA-N): > 100 µM
TGI (HOP-92 NSCLC): > 100 µM

C/C1=C\C=C(\C(C)C)CC/C(C(=O)O)=C\CC/C(C)=C/CC1
TGI (SN12C renal): 45.9 µM
TGI (ACHN renal): > 100 µM
TGI (SR leukemia): 38.6 µM
TGI (IGROV1 ovarian): > 100 µM
TGI (COLO 205 colon): 50.6 µM
TGI (PC-3 prostate): 35.2 µM
TGI (SNB-19 CNS): 51.2 µM
TGI (MOLT-4 leukemia): 43.2 µM
TGI (SF-295 CNS): 47.9 µM
TGI (HS 578T breast): > 100 µM
TGI (MDA-N): 82 µM
TGI (HOP-92 NSCLC): 40.5 µM

COc1cc2nc(-c3cccs3)[nH]c(=O)c2cc1OC
TGI (SN12C renal): > 100 µM
TGI (ACHN renal): > 100 µM
TGI (SR leukemia): 58.4 µM
TGI (IGROV1 ovarian): > 100 µM
TGI (COLO 205 colon): > 100 µM
TGI (PC-3 prostate): > 100 µM
TGI (SNB-19 CNS): > 100 µM
TGI (SF-295 CNS): > 100 µM
TGI (HS 578T breast): > 100 µM
TGI (HOP-92 NSCLC): > 100 µM

CCc1ccccc1NNc1cc(=O)[nH]c(=O)[nH]1
TGI (SN12C renal): 39 µM
TGI (ACHN renal): 32.7 µM
TGI (SR leukemia): > 100 µM
TGI (IGROV1 ovarian): 37.8 µM
TGI (COLO 205 colon): 34.5 µM
TGI (PC-3 prostate): 32.8 µM
TGI (SNB-19 CNS): 43.5 µM
TGI (MOLT-4 leukemia): 85.7 µM
TGI (SF-295 CNS): 36.2 µM
TGI (HS 578T breast): 68.6 µM
TGI (MDA-N): 33.6 µM
TGI (HOP-92 NSCLC): 31.3 µM

CCOC(=O)N(c1ccccc1)N(CC)C(=O)/C(C)=N/Nc1ccc([N+](=O)[O-])cc1
TGI (SN12C renal): 31.4 µM
TGI (ACHN renal): 40.9 µM
TGI (SR leukemia): 69.3 µM
TGI (IGROV1 ovarian): 33 µM
TGI (COLO 205 colon): 33.5 µM
TGI (SNB-19 CNS): 34.9 µM
TGI (MOLT-4 leukemia): 52.6 µM
TGI (SF-295 CNS): 32.3 µM
TGI (HOP-92 NSCLC): 30.3 µM

CCOC(=O)C1=COC(C)(CCc2ccccc2)CC1=O (stereo not given)
TGI (SN12C renal): > 100 µM
TGI (ACHN renal): > 100 µM
TGI (COLO 205 colon): > 100 µM
TGI (PC-3 prostate): > 100 µM
TGI (SNB-19 CNS): > 100 µM
TGI (MOLT-4 leukemia): > 100 µM
TGI (SF-295 CNS): > 100 µM
TGI (HS 578T breast): > 100 µM
TGI (MDA-N): > 100 µM

O=c1cnn(CCOCP(=O)(O)O)c(=O)[nH]1
TGI (SN12C renal): > 100 µM
TGI (ACHN renal): > 100 µM
TGI (IGROV1 ovarian): > 100 µM
TGI (COLO 205 colon): > 100 µM
TGI (PC-3 prostate): > 100 µM
TGI (SNB-19 CNS): > 100 µM
TGI (MOLT-4 leukemia): > 100 µM
TGI (HS 578T breast): > 100 µM
TGI (MDA-N): > 100 µM
TGI (HOP-92 NSCLC): > 100 µM

COc1cc(N(Cc2ccc3oc(=O)c(-c4ccccc4)nc3c2)Cc2ccc3oc(=O)c(-c4ccccc4)nc3c2)cc(OC)c1OC
TGI (SN12C renal): > 10 µM
TGI (ACHN renal): > 10 µM
TGI (SR leukemia): > 10 µM
TGI (IGROV1 ovarian): > 10 µM
TGI (COLO 205 colon): > 10 µM
TGI (PC-3 prostate): > 10 µM
TGI (SNB-19 CNS): > 10 µM
TGI (MOLT-4 leukemia): > 10 µM
TGI (SF-295 CNS): > 10 µM
TGI (HS 578T breast): > 10 µM
TGI (MDA-N): > 10 µM
TGI (HOP-92 NSCLC): > 10 µM

COc1ccc(C(C2=C(O)COC2=O)c2cc3c(cc2O)OCO3)cc1OC (stereo not given)
TGI (SN12C renal): > 100 µM
TGI (ACHN renal): > 100 µM
TGI (SR leukemia): > 100 µM
TGI (IGROV1 ovarian): > 100 µM
TGI (COLO 205 colon): > 100 µM
TGI (PC-3 prostate): > 100 µM
TGI (SNB-19 CNS): > 100 µM
TGI (MOLT-4 leukemia): > 100 µM
TGI (SF-295 CNS): > 100 µM
TGI (HS 578T breast): > 100 µM
TGI (MDA-N): > 100 µM
TGI (HOP-92 NSCLC): > 100 µM

O=[N+]([O-])c1ccc(O)c(/C=N/NC(=S)N2CCCCC2)c1
TGI (SN12C renal): > 41.9 µM
TGI (ACHN renal): 6.97 µM
TGI (SR leukemia): > 70.2 µM
TGI (IGROV1 ovarian): 8.76 µM
TGI (COLO 205 colon): > 37.9 µM
TGI (PC-3 prostate): > 92.7 µM
TGI (SNB-19 CNS): > 53.6 µM
TGI (MOLT-4 leukemia): > 44.4 µM
TGI (SF-295 CNS): 28.7 µM
TGI (HS 578T breast): > 60 µM
TGI (MDA-N): 60.1 µM
TGI (HOP-92 NSCLC): 33 µM

COc1ccc(/C=C/C2=NN(c3cccc(S(=O)(=O)O)c3)C3(C2)SCC(=O)N3c2nc3ccccc3s2)cc1 (stereo not given)
TGI (SN12C renal): > 100 µM
TGI (ACHN renal): > 100 µM
TGI (SR leukemia): > 100 µM
TGI (IGROV1 ovarian): > 100 µM
TGI (COLO 205 colon): > 100 µM
TGI (PC-3 prostate): > 100 µM
TGI (SNB-19 CNS): > 100 µM
TGI (MOLT-4 leukemia): > 100 µM
TGI (HS 578T breast): > 100 µM
TGI (MDA-N): > 100 µM
TGI (HOP-92 NSCLC): > 100 µM

CC(=O)Oc1ccc(/C=C/C(=O)O[C@@H](C(=O)O)[C@@H](OC(=O)/C=C/c2ccc(OC(C)=O)c(OC(C)=O)c2)C(=O)O)cc1OC(C)=O
TGI (SN12C renal): > 100 µM
TGI (ACHN renal): > 100 µM
TGI (SR leukemia): > 100 µM
TGI (IGROV1 ovarian): > 100 µM
TGI (COLO 205 colon): > 100 µM
TGI (PC-3 prostate): > 100 µM
TGI (SNB-19 CNS): > 100 µM
TGI (SF-295 CNS): > 100 µM
TGI (HS 578T breast): > 100 µM
TGI (MDA-N): > 100 µM
TGI (HOP-92 NSCLC): > 100 µM

COC(OC)[C@@H]1OC[C@@H](O)[C@@H]1n1cnc2c(N)ncnc21
TGI (SN12C renal): > 100 µM
TGI (ACHN renal): > 100 µM
TGI (SR leukemia): > 100 µM
TGI (IGROV1 ovarian): > 100 µM
TGI (COLO 205 colon): > 100 µM
TGI (PC-3 prostate): > 100 µM
TGI (MOLT-4 leukemia): > 100 µM
TGI (SF-295 CNS): > 100 µM
TGI (HS 578T breast): > 100 µM
TGI (MDA-N): > 100 µM
TGI (HOP-92 NSCLC): > 100 µM

O=C(NC(=S)NC(=O)c1cc(O)c(O)c(O)c1)c1cc(O)c(O)c(O)c1
TGI (SN12C renal): 53.7 µM
TGI (ACHN renal): 44.9 µM
TGI (SR leukemia): > 100 µM
TGI (COLO 205 colon): 46.7 µM
TGI (PC-3 prostate): 39.8 µM
TGI (SNB-19 CNS): 52.8 µM
TGI (SF-295 CNS): 46.3 µM
TGI (MDA-N): 6.06 µM
TGI (HOP-92 NSCLC): > 100 µM

CN(C)c1cc[n+](-c2nc(/N=C(\[O-])C(F)(F)F)nc3c2ncn3C2CC(O)C(CO)O2)cc1 (stereo not given)
TGI (SN12C renal): > 100 µM
TGI (ACHN renal): > 100 µM
TGI (IGROV1 ovarian): > 100 µM
TGI (COLO 205 colon): > 100 µM
TGI (PC-3 prostate): > 100 µM
TGI (SNB-19 CNS): > 100 µM
TGI (MOLT-4 leukemia): > 100 µM
TGI (SF-295 CNS): > 100 µM
TGI (HS 578T breast): > 100 µM
TGI (MDA-N): > 100 µM

S=C(Nc1ccc2cn[nH]c2c1)Nc1ccc2cn[nH]c2c1
TGI (SN12C renal): > 100 µM
TGI (ACHN renal): > 100 µM
TGI (SR leukemia): > 100 µM
TGI (IGROV1 ovarian): > 100 µM
TGI (COLO 205 colon): > 100 µM
TGI (PC-3 prostate): > 100 µM
TGI (SNB-19 CNS): > 100 µM
TGI (SF-295 CNS): > 100 µM
TGI (HS 578T breast): > 100 µM
TGI (MDA-N): > 100 µM
TGI (HOP-92 NSCLC): > 100 µM

NC(Cc1ccc(S(=O)(=O)O)cc1)C(=O)NC(Cc1ccc(S(=O)(=O)O)cc1)C(=O)O (stereo not given)
TGI (SN12C renal): > 100 µM
TGI (ACHN renal): > 100 µM
TGI (IGROV1 ovarian): > 100 µM
TGI (COLO 205 colon): > 100 µM
TGI (PC-3 prostate): > 100 µM
TGI (MOLT-4 leukemia): > 100 µM
TGI (SF-295 CNS): > 100 µM
TGI (HS 578T breast): > 100 µM
TGI (MDA-N): > 100 µM
